Experimental data as given in patent US6806359B1, “Hormone receptor compositions and methods” (The Salk Institute for Biological Studies, priority 1986, dated 2004).
Entries after “also recorded” stand apart in the source; their conditions may differ.

How the values were obtained:
rTR alpha = molecular target: T1, rTR alpha (Rattus norvegicus, UniProt P63059); assay: ^125I-T3 binding to in vitro translated rTR alpha (Scatchard and competition); conditions: excess competitor
T1 construct: made in house; host or cells: rabbit reticulocyte lysate (SP6 transcripts of rbeA12B)
T1 sequence (P63059 1-410 isoform P63059-2): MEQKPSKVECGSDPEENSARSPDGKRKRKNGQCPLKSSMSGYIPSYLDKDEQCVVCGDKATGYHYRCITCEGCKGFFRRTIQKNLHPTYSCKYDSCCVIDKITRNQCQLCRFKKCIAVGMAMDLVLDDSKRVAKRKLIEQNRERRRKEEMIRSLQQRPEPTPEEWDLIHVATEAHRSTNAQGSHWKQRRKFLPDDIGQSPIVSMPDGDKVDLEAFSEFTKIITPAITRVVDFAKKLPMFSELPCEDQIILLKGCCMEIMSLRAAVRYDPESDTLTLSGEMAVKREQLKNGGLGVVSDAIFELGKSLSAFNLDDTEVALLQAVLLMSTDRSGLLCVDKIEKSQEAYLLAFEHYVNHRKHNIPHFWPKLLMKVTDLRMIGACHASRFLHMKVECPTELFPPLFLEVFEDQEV
From the text: In vitro translation and thyroid hormone binding of rTR alpha FIG. 69 rTR alpha was transcribed in vitro and translated in a rabbit reticulocyte lysate. […] Lane 1, no added RNA; lane 2, rbeA12, which contains the entire 5′ untranslated region; lane 3, rbeA12B, which contains only 97 bp of 5′ untranslated sequence. […] Samples from rbeA12B programmed lysates were mixed with increasing concentrations of unlabeled thyroid hormone or analogs to compete with labeled hormone. […] In vitro transcription and translation and hormone binding were performed as described (22, 23).
23. For in vitro transcription, the entire EcoRI insert of rbeA12 was cloned into pGEM1 (Promega Biotec). […] For thyroid hormone binding, transcriptions were performed with SP6 polymerase and 5 to 10 micrograms of rbeA12B linearized with SstI. […] Thyroid hormone binding for both the Scatchard and competition analyses were determined in the same manner, except that unlabeled protein was used for the Scatchard analysis. […] Specific hormone binding was determined by adding a 1000-fold excess of unlabeled hormone and assayed by counting radioactivity eluting in the excluded volume from a Sephadex G-25 fine (Pharmacia) 0.9-by 4.0-cm. column.

MR = conditions: read-out: reported KD values for aldosterone binding to MR; cited from earlier work
GR [1] = molecular target: T2, GR (Homo sapiens, UniProt P04150); conditions: read-out: KD for binding to GR; cited from earlier work
T2 sequence (P04150 1-777): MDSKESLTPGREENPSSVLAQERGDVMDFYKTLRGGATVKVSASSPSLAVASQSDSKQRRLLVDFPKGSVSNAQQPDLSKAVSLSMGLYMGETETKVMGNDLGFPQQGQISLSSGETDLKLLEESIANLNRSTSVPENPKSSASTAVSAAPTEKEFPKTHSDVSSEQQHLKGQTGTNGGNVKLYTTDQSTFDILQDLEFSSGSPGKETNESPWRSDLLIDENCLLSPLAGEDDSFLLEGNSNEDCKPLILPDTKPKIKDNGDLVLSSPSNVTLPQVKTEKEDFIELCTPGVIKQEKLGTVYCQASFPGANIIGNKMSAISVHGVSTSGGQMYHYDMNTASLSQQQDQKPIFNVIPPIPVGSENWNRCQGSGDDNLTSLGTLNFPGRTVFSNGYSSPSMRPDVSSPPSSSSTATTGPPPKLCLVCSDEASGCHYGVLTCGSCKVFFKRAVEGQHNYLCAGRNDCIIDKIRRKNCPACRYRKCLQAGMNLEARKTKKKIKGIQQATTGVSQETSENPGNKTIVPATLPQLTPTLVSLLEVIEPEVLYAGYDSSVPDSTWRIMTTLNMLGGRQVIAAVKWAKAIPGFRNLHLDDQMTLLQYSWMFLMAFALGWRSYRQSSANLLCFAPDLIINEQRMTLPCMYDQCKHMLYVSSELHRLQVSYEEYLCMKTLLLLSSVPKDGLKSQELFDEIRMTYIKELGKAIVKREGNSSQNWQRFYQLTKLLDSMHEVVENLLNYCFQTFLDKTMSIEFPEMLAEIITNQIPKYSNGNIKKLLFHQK

hMR [2] = molecular target: T3, hMR (Homo sapiens, UniProt P08235); assay: Transcriptional activation of MMTV LTR (GMCAT) by hMR in transfected CV1 cells; assay type: cell-based; parameters: expressed in transfected cells; conditions: pRShMR + GMCAT, charcoal-treated serum, 10 nM steroid
T3 sequence (P08235 1-984): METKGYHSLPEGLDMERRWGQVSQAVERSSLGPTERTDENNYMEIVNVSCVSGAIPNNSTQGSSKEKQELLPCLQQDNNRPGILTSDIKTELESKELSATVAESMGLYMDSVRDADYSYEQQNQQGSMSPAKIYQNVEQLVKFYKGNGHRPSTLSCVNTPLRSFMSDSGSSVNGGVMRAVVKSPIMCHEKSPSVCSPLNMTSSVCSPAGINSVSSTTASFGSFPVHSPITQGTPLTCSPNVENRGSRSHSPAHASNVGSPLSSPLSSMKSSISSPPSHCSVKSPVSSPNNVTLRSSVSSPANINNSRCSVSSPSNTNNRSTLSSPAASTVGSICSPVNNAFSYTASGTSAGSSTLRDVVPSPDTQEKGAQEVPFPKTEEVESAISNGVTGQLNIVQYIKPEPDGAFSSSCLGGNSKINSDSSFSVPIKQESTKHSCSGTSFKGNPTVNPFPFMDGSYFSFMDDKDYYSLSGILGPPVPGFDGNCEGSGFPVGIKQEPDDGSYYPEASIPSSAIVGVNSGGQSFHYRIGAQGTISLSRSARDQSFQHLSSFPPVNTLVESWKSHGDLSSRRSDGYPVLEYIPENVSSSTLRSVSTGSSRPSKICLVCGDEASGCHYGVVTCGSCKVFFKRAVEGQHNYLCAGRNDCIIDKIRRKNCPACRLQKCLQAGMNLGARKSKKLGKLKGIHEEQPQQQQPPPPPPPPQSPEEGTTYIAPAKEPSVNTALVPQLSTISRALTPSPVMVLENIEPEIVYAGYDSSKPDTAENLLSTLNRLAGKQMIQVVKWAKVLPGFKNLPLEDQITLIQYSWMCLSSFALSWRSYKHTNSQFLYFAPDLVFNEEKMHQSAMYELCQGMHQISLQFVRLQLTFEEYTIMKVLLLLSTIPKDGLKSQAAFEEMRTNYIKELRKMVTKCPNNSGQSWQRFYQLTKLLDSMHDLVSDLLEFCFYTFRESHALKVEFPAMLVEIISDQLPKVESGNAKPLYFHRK
From the text: Steroid hormone action is characterized by hormone-dependent modulation of target gene transcription. The assay for transcriptional regulation by transfected hGR in CVI cells (see Experimental Section II) was adapted to hMR (FIGS. 42 and 44). The expression plasmid used for steroid-binding assays, pRShMR, was cotransfected with a reporter plasmid called GMCAT, which contains the MMTV LTR linked to the bacterial gene for chloramphenicol acetyltransferase (CAT). Thus CAT activity provides an enzymatic assay for the transcriptional activity of the MMTV promoter. The MMTV promoter contains several glucorticoid response elements (GRE's), enhancer-like DNA sequences that confer glucocorticoid responsiveness via interaction with the GR (21).
FIG. 42 Structure of GMCAT. This plasmid was cotransfected with the steroid receptors as a reporter gene for hormone-dependent transcriptional activation (see Experimental Section II). […] Transfected cells were maintained in DMEM with 5 percent fetal calf serum. Serum was treated with charcoal to eliminate free steroids in subsequent experiments so that the effects of exogenous steroids could be determined. […] (D) AC, 3-acetylchloramphenicol; C, chloramphenicol. Two days after transfection by calcium phosphate coprecipitation (43), extracts were prepared for CAT assay (44). The assays were incubated for 6 hours with 50 micrograms of protein extract.

GR [3] = molecular target: T2, GR; assay: Transcriptional activation of MMTV LTR (GMCAT) by hGR in transfected CV1 cells; assay type: cell-based; parameters: The expression vector linking the RSV LTR to full length hGR cDNA (pRShGR alpha) was designed to obtain high levels of expression; expressed in transfected cells; host or cells: CV1 monkey kidney cells, cotransfected with GMCAT; conditions: pRShGR alpha + GMCAT, 10 nM steroid
[4] = molecular target: T4, alpha-hGR (human glucocorticoid receptor) translated in vitro (Homo sapiens, UniProt P04150); assay: Steroid binding (^3H-triamcinolone acetonide) of hGR translated in vitro in reticulocyte lysate, competition by unlabeled steroids; conditions: 100-fold excess unlabeled competitor (15 microM), 2 h at 0° C.
T4 construct: We describe the use of the SP6 transcription vector system to generate analytical amounts of full-length protein; made in house; host or cells: rabbit reticulocyte lysate (cell-free translation of SP6 transcripts)
T4 sequence (P04150 1-777): T2 sequence (P04150 1-777)
Method: Steroid-binding of alpha-hGR translated in vitro. […] Bars represent bound ^3H-triamcinolone acetonide (TA) determined with a 100-fold excess of various steroid competitors; 100% competition was determined using unlabeled TA as competitor. The values represent the mean of triplicate determinations, with error bars showing […].
Binding assays were performed in 100 microliters containing 10 mM Tris-HCl pH 7.4, 100 mM NaCl, 1 mM EDTA, 10 mM sodium molybdate, 10 dithiothreitol, […] ^3H-TA (20 Ci mmol^−1, Amersham) and 10 microliters translation mixture or 100 microgram fresh 1M-9 cytosol. Unlabeled steroid competitor (15 microM) was added as indicated. After 2 h at 0° C., samples were extracted twice for 5 min. each with 5 microliter of 50% dextran-coated charcoal to remove unbound steroid, and counted.

hMR [5] = molecular target: T3, hMR; assay: [^3H]aldosterone binding and steroid competition in extracts of pRShMR-transfected COS cells; parameters: expressed in transfected cells; host or cells: COS cells transfected with pRShMR (DEAE-dextran); conditions: 1-, 10-, or 100-fold molar excess of unlabeled steroid
Method: Ligand specificity of the hMR protein was determined by preparing cytosol extracts from COS cells transfected with pRShMR. Two days after transfection, cells were harvested, and hormone binding was measured by a dextran-treated charcoal assay. […] This provided a measure of the relative affinity of each of these steroids for hMR.
Steroid-binding properties of expressed hMR. FIG. 38 Structure of pRShMR, the hMR expression plasmid (41). […] Each point was assayed in triplicate with 100 micrograms of extract protein in a 200-microliter incubation at 0° C. for 2.5 hours. […] The results of two independent trials representative of these competition experiments are shown. Cold competitor was present in 1-, 10-, or 100-fold molar excess. […] Subconfluent COS cells were transfected by the DEAE-dextran method (42) with 10 micrograms of pRShMR per dish. Cells were maintained for 2 days in DMEM (Dulbecco's modification of Eagle's minimum essential medium) with 5 percent charcoal-treated fetal calf serum, then harvested in […] tris-HCl. (pH 7.8), 10 nM NaCl, 1 mM EDTA, 10 mM Na2MoO4, 5 mM dithiothreitol, antipain (5 microgram/ml), leupeptin (5 microgram/ml), and 500 microM phenylmethylsulfonyl fluoride. After centrifugation at 15,000×g for 10 minutes, extracts were adjusted to 100 mM NaCl and 5 percent glycerol before binding. […] After centrifugation at 15,000×g for 2 minutes at 40C, tritium in supernatant was quantified by liquid scintillation spectrophotometry.

SMILES	competition for T3 binding to rTR alpha by excess compound (rTR alpha)	Kd (MR)	Kd (GR [1])	hMR-mediated CAT activity response (in words) (hMR [2])	hGR-mediated CAT activity response (in words) (GR [3])	competition with ^3H-TA binding to in vitro-synthesized alpha-hGR by excess unlabeled steroid [4]	relative affinity for hMR by competition with 5 nM [^3H]aldosterone (in words) (hMR [5])	relative affinity for hMR by competition with 5 nM [^3H]aldosterone (in words) (hMR [5]; listed as hydrocortisone)
C[C@]12CCC(=O)C=C1CC[C@@H]1[C@@H]2[C@@H](O)C[C@]2(C=O)[C@@H](C(=O)CO)CC[C@@H]12 [aldosterone]	no competition	0.5 to 3 nM	25 to 65 nM	became responsive; also recorded: approximately equivalent	did not respond; also recorded: insensitive	–	–	–
C[C@]12CCC(=O)C=C1CC[C@@H]1[C@@H]2[C@@H](O)C[C@@]2(C)[C@H]1CC[C@]2(O)C(=O)CO [cortisol]	–	–	–	also observed	–	could be competed with	compete as effectively as aldosterone itself	very similar affinities
